# Source: patent publication EP1209147A1, “CARBOXYLIC ACID DERIVATIVES AND ADHESION MOLECULE INHIBITORS CONTAINING THE SAME AS THE ACTIVE INGREDIENT” (TORAY INDUSTRIES, INC., priority 1999, dated 2001)
# How the values were obtained:
# Assay type in all cases: in vivo, BLAB/c mouse
# Mouse Asthma Model = test: Mouse asthma model (OVA, intranasal induction); settings: 750 µg per time intranasally; BALF on DAY-28; Fig. 2
# Experimental: Equivolume of 10% KAI(SO4)2·12H2O (WAKO) solution and ovalbumin (hereinafter "OVA") solution (500 µg/ml) were mixed, and 10N NaOH was slowly added to neutralize the solution to obtain Al(OH)3 gel (OVA 500 µg/ml) on which OVA was adsorbed. The obtained product was intraperitoneally administered to each BLAB/c mouse (female, 7 weeks old, JAPAN CHARLES RIVER) at a dose of 200 µl (100 µg) per mouse on DAY-0 and DAY-14. Thereafter, on DAY-14, 50 µl of 2 mg/ml solution of OVA in physiological saline was intranasally administered, and on DAY-25, 26 and 27, 50 µl of 1 mg/ml solution of OVA in physiologically saline was intranasally administered to induce inflammation. Compound No. 140 used as the test compound was dissolved in physiological saline and the solution was intranasally administered at 30 minutes before induction with OVA, at 8 hours after induction, and on DAY-25, 26 and 27, twice a day, at a dose of 750 µg per time. To the background group and control group, physiological saline was intranasally administered.
# On DAY-28, bronchus of each mouse was incised and the bronchus and alveoli were washed (BAL) 4 times with 0.7 ml of physiological saline. […] After staining the specimen by May-Giemsa staining method, the leukocytes were grouped and counted under microscope to determine the number of eosinophils. […]
# [1] = test system: Mouse Peritonitis Induced by Ragweed Pollen; test: Mouse peritonitis induced by ragweed pollen; settings: 400 mg/kg intravenously, totally 5 times; 48 hours after induction
# Experimental: Ragweed pollen extract 1:100 (TORII PHARMACEUTICAL) was diluted by 10-fold with physiological saline, and the resulting solution was used as an antigen for sensitization. This antigen solution was subcutaneously administered to each BLAB/c mouse (female, 6 weeks old, JAPAN CHARLES RIVER) in an amount of 100 µl each on DAY-0 and DAY-1, and 200 µl each on DAY-6, DAY-8 and DAY-14 to obtain sensitized mice, DAY-0 being the day of the initial sensitization. On DAY-20, 200 µl of the antigen solution was intraperitoneally administered to induce peritonitis. After 48 hours from the induction, each mouse was sacrificed by bleeding to death, and 3 ml of heparin-containing PBS(-) was intraperitoneally injected. Celiotomy was performed and washing solution of the abdominal cavity was recovered. The leukocytes contained in the recovered washing solution were subjected to site spin and a smear specimen was prepared. After staining the specimen by May-Giemsa staining method, the leukocytes were grouped and counted under microscope to determine the number of eosinophils. Compound No. 140 used as the test compound was dissolved in physiological saline and the solution was intravenously administered totally 5 times, i.e., at 16 hours before induction, at the time of induction, at 8 hours, 24 hours and 32 hours after induction, at a dose of 400 mg/kg per each time. […]
# Auricular Edema Model = test: Auricular edema model (IgE anti-DNP passive sensitization, DNFB induction)
# Experimental: To each BLAB/c mouse (female, 7 weeks old, JAPAN CHARLES RIVER), mouse IgE anti-DNP antibody (5 mg/kg, SEIKAGAKU CORPORATION) was intravenously administered to passively sensitize the mouse. Twenty four hours later, 20 µl of 0.38% 2,4- dinitrofluorobenzene (DNFB, Aldrich) dissolved in acetone:olive oil (4:1) was applied to the auricle of the sensitized mouse to induce inflammation. The thickness of the auricle was measured until 24 hours after the induction with Digimatic Indicator (Mitutoyo) and the ear swelling rate was calculated according to the following equation: Ear Swelling Rate (%) = (A - B)/B x 100 [formula] • A: Thickness of right auricle at 24 hours after induction • B: Thickness of right auricle before induction
# Twenty four hours after the induction, the auricle was cut off and fixed with formalin. After the fixation, continuous sections of the auricle were prepared and stained by Luna staining. The number of eosinophils in each section was counted and the total of them was defined as the number of eosinophils accumulated in the auricle.
# Compound No. 140 used as the test compound was dissolved in physiological saline and the solution was intravenously administered totally 3 times, i.e., at the time of sensitization, at 8 hours and 24 hours after sensitization, at a dose of 400 mg/kg per each time. Further, to examine the effect of the compound when applied to the auricle, the compound was dissolved in ethanol, and the solution was applied to the auricle totally twice, i.e., at 8 hours after sensitization and at 1 hour before the induction, at a dose of 0.3 mg/ear. To the background group and the control group, physiological saline was intravenously administered and ethanol was applied, respectively. The experiment was carried out using 4 to 6 mice in each group. The results are shown in terms of mean ± standard error.
# Twenty four hours after the induction, the auricle was cut off and fixed with formalin. After the fixation, continuous sections of the auricle were prepared and stained by Luna staining. The number of eosinophils in each section was counted. Compound No. 143 used as the test compound was dissolved in physiological saline and the solution was topically or systemically administered totally 3 times, i.e., at the time of sensitization, at 8 hours and 24 hours after sensitization. The experiment was carried out using 4 to 6 mice in each group. The results are shown in terms of mean ± standard error.
smiles,measurement,setting,value
"CC(C)(C)CC(=O)N[C@@H](CSSC[C@H](NC(=O)CC(C)(C)C)C(=O)O)C(=O)O [Example 140, 3-((2(R)-carboxy-2(R)-(3,3-dimethylbutanoylamino)ethyl)disulfanyl)-2(R)-(3,3-dimethylbutanoylamino)propionic acid]","accumulation of leukocytes, especially eosinophils, in the lung",Mouse Asthma Model,inhibits
same,"inhibition rate of accumulation of leukocytes, especially eosinophils, to abdominal cavity",[1],31.1%
same,swelling of ear induced by application of the antigen,Auricular Edema Model; Compound No. 140: 400 mg/kg intravenously 3 times or 0.3 mg/ear applied to auricle,inhibited
same,accumulation of eosinophils to auricle induced by application of the antigen,"Auricular Edema Model; Compound No. 140: 400 mg/kg intravenously 3 times or 0.3 mg/ear applied to auricle, Fig. 1, 400 mg/kg",inhibits
same,Ear Swelling Rate (%),"Auricular Edema Model; applied to auricle, 0.3 mg/ear, twice, 24 hours after induction",26.12%
same,Inhibition Rate (%),"Auricular Edema Model; swelling of ear, applied to auricle, 0.3 mg/ear, twice",40.3%
